1 compound from patent publication US7265246B2, “Indane derivates as muscarinic receptor agonists” (Eli Lilly and Company, priority 2003, dated 2007) can be followed below.

In the assay the test system is Male Sprague-Dawley rats. To be noted: s.c. immediately after the sampling phase, six-hour delay.

Read-outs that look alike come from different tables or passages of the source.

Consider `Nc1c2c(nc3ccccc13)CCCC2` [Tacrine, tacrine], for which the “retention in the eight arm radial maze” value reads like this: (3 mg/kg) “not”; (10 mg/kg) “significantly improved retention”.
